Test system: S6-M19-SAM sensor (RNA, riboswitch) GGGAGAUAGAGCAUCCGAUAACUUCGGUUAUUGGAUGGAUCAGACUCCUUCGGGAGUUUGAUCGGGCCUGAAGCCUCCACGGGCCCCUCUGUCUCCCACAGCUUGGACGAGCUGAAGGAGGCACGGCUCCCCAUCAAGGACGGGUCCAAUGGUCCGCUUCGGCGGAUCAUUGUUGAGUAGAGUGUGAGGAUGGGCCGGGGGAACUUCGGUUCCCGAAAGGACCGGUCGAAGGGACGGUGCGGAGAGGAGAGACUGGGAUGCCUUGUAACCGGGUCUAAGUUGU
Test: FRET dose-response (Spinach/DFHBI-1T to Mango/YO3-biotin)
Conditions: 125 mM KCl, 1 mM MgCl2; assembly buffer; 50 nM RNA, 1 µM DFHBI-1T, 1.7 µM YO3-biotin; SAM 1 µM to 2.5 mM; apparent

EC50: 17 µM
Compound: C[S+](CC[C@H](N)C(=O)O)C[C@H]1O[C@@H](n2cnc3c(N)ncnc32)[C@H](O)[C@@H]1O (stereo partly shown)

Source: article PMC5750238 (2018)
